For data set [1], the target named is T1, Aβ40 (Homo sapiens, UniProt P05067).
T1 construct: Lyophilized Aβ40 was monomerized following previous procedures; purchased GenScript
Kind of data set: Dynamic light scattering (DLS) of ThT assay samples. It is filed as biochemical. Particulars: for DLS prominent peak particle size / DLS minor feature share of the total spectrum / DLS minor feature particle size: Aβ40 co-incubated with complex 6 h; for DLS prominent peak particle size: PBS pH 7.4, 37 °C, Aβ40 alone around 340 nm; for DLS minor feature share of the total spectrum: Aβ40 alone 13 percent; for DLS minor feature particle size: Aβ40 alone 78 nm; for Ranking DLS: scale 1 to 5 (1 = best, 5 = worst). The method, then:
Samples were extracted from the ThT assay plate for DLS analysis. A 125 μL sample was placed into a 1 mL syringe and injected through a syringe filter (pore size: 0.2 μm), into a 0.5 mL microcentrifuge tube. The filtrate was added to a microvolume polystyrene cuvette and placed into a Malvern Zetasizer Nano ZSP to measure the DLS spectra. Measurements are represented as an average of percent intensity through several runs determined by Zetasizer software Version 7.13.1.
Samples for DLS analysis were taken directly from the ThT assay following its completion. This allowed for a comparison between both data sets, to determine if a correlation for activity between the complexes could be established. For the Aβ40 peptide alone, a prominent peak around 340 nm was observed, while following treatment with the respective Ru complexes, a discernable shift to smaller particle sizes was unanimously observed (Figure 6).

Data set [2] addresses T1, Aβ40. Kind of data set: TEM imaging of DLS filtrates. It counts as biochemical. To be noted: for Ranking TEM: scale 1 to 5 (1 = best, 5 = worst), qualitative. How it is done: Samples for TEM were prepared using the DLS filtrates following their analysis. An aliquot (20 µL) was added directly to a copper-coated formvar/carbon 300 mesh grid with a 63 µm pore size (Ted Pella). After settling for 1 min, the solvent was wicked away, then the grid was stained using 2% uranyl acetate (20 µL). After standing for one minute, the solvent was wicked away, and the grid was washed using dH2O (20 µL), which stayed on the grid for one minute before being wicked away. The grids were stored at room temperature until analysis. TEM images were collected using a high-resolution JEOL JEM 2100F operating at 200 kV.
The final evaluative step in the Aβ40 aggregation assay was imaging the samples using transmission electron microscopy (TEM). The samples used in the preparation of the TEM grids were those of the DLS filtrates, thereby allowing for a direct comparison between experimental methods, ultimately resulting in the same sample being measured by three different instruments. […] In order to determine the impact of each complex on Aβ40, multiple images were taken from each prepared grid (Figure S21), thereby providing an accurate representation of the particles.

A further data set concerns C6 glioma cells. Kind of data set: MTT cell viability assay, C6 glioma cells. It counts as cell-based, Rattus norvegicus. Particulars: for Ranking Cytotoxicity: scale 1 to 5 (1 = best, 5 = worst), C6 glioma cells; for cell morphology versus DMSO-treated control (confocal microscopy): 20 µM. How it is done:
Cultures of adherent Rattus norvegicus pheochromocytoma cells (PC-12; ATCC CRL-1721) and axenic Rattus norvegicus C6 glioma cells (ATTC CCL-107) were prepared as previously reported. The cells were cultured using Dulbecco’s Modified Eagle’s medium with low glucose, sodium pyruvate, and without phenol red or L-glutamine (DMEM REF:11054-020; GIBCO; Waltham, MA, USA) and supplemented with 1.5% (v/v) heat-inactivated fetal bovine serum (GIBCO; Waltham, MA, USA), 10% (v/v) sterile filtered horse serum (Sigma-Aldrich, St. Louis, MO, USA), and 4% sterile L-glutamine (Sigma-Aldrich; St. Louis, MO, USA). Medium supplemented with sera was referred to as “complete medium”, while non-supplemented medium was designated as “incomplete”.
For the viability assays, both cell types were grown to confluency before being trypsinized, resuspended in 1 mL of complete medium per confluent well of a 6-well plate, diluted ten-fold, and then counted with a Scepter 2.0 Handheld Automated Cell Counter (Millipore, Burlington, MA, USA) affixed with a 60 µm sensor. Cells were subsequently seeded (adding 100 µL per well, thus adding an average of 1.0 × 10^4 cells per well) into poly-L-lysine-coated flat-bottomed 96-wells using separate plates for each cell type. Stock solutions of the Ru complexes were prepared in DMSO, with an appropriate dilution using DMSO to the testing concentrations of 40, 20, 2, or 0.2 µM. In all cases, the final concentration of DMSO was 1% with cell incubations. Solutions of the Ru complexes or DMSO were introduced 24 h after cell plating and incubated a further 24 h unless otherwise indicated. Replicate wells (n = 4) were set up for each experimental variation. No cell controls were also set up, containing the Ru complex in DMSO additions, so that potential spectral signals could be blanked out for the spectrophotometric 3-[4,5-dimethylthiazol-2-yl]-2,5-diphenyltetrazoliumbromide (MTT) viability assay, as described below.
To assess the viability of the cells with and without Ru additions, cell viability tests were performed using an MTT assay following the procedure of Mosmann with the following variations: Before adding the MTT reagent (5 mg/mL water), 90 µL of the complete medium was removed from each well, and 90 µL of incomplete medium was added. Then, 10 µL of MTT reagent was added per well, gently mixed, and incubated at ambient temperature for one hour. The reactions were stopped by the addition of 100 µL per well of the stopping reagent (10% v/v Triton X-100, 1 mM HCl in isopropanol) to lyse the cells and dissolve the formed formazan crystals. The absorbance values were recorded using a Bio-Rad® Microplate Reader Benchmark at 595 nm. All MTT data were normalized to the DMSO controls by calculating the average percent of DMSO control with the following formula: average cell+Ru MTT−average (Ru blank MTT)/average control cell MTT−average (control blank MTT) × 100
Data were obtained from 4 replicates and reported as a percent of control cells.
A final step in the evaluation of the Ru complexes was completed using a standard MTT cell viability assay towards two neuronal cells lines. The cell lines used were glial cells, as these are the most abundant cell type within the brain [61], and chromaffin cells, which would provide an indication regarding stress response. Taken together, these would provide information regarding the overall biocompatibility of the Ru complexes.

T1 sequence (P05067 672-711 limits assumed): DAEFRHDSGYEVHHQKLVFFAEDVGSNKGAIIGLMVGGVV

In the case of `Cc1ccc(C(C)C)cc1.F[P-](F)(F)(F)(F)F.[Cl-].[Ru+2].c1ccc(-c2ccccn2)nc1` [RuB, [Ru(η^6-p-cymene)(2,2′-bipyridine)Cl]PF6], at Aβ40 [1], the “DLS prominent peak particle size” value is on record as 227 nm, the “DLS minor feature share of the total spectrum” value (shortened to “DLS minor feature share”) came to 4%, the “DLS minor feature particle size” value turned out to be 21 nm and the “Ranking DLS” value came to 3. On Aβ40 [2], the “Ranking TEM” value is on record as 2. The “Ranking Cytotoxicity” value in the data set on C6 glioma cells amounted to 4.

As to `Cc1ccc(C(C)C)cc1.Cc1ccnc(-c2cc(C)ccn2)c1.F[P-](F)(F)(F)(F)F.[Cl-].[Ru+2]` [RuBMe, [Ru(η^6-p-cymene)(4,4′-dimethyl-2,2′-bipyridine)Cl]PF6], on Aβ40 [1], the “DLS prominent peak particle size” value was found to be 214 nm, the “DLS minor feature share” value was 2%, the “DLS minor feature particle size” value was 24 nm and the “Ranking DLS” value came out at 1. For the same molecule, the “Ranking TEM” value at Aβ40 [2] was 3. The “Ranking Cytotoxicity” value in the data set on C6 glioma cells is reported as 2.

Take “[Ru(η^6-p-cymene)(4,4′-di-tert-butyl-2,2′-bipyridine)Cl]PF6 [RuBtB]”: at Aβ40 [1], the “DLS prominent peak particle size” value is recorded as 264 nm, the “DLS minor feature share” value was determined as 4%, the “DLS minor feature particle size” value turned out to be 53 nm and the “Ranking DLS” value is 5. Moreover, the “Ranking TEM” value at Aβ40 [2] is 4. Also, the “cell morphology versus DMSO-treated control (confocal microscopy)” value in the data set on C6 glioma cells (C6 cells, 24 h) is “severely reduced in numbers and cell shapes”. Also, in the data set with C6 glioma cells (C6 cells, 20 and 40 µM, 24 h), the “toxicity (MTT)” value is “substantial toxicity”. Besides, the “Ranking Cytotoxicity” value in the data set with C6 glioma cells came out at 5.

In the case of “[Ru(η^6-p-cymene)(4,4′-diamino-2,2′-bipyridine)Cl]PF6 [RuBA]”, on Aβ40 [1], the “DLS prominent peak particle size” value is given as 231 nm, the “DLS minor feature share” value was found to be 3%, the “DLS minor feature particle size” value stood at 42 nm and the “Ranking DLS” value was found to be 4. In addition, the “appearance of Aβ40 particles in TEM images” value on Aβ40 [2] (DLS filtrates after 6 h co-incubation) was “most dispersed and least dense particles”. Also, on Aβ40 [2], the “Ranking TEM” value was determined as 1. In the data set on C6 glioma cells (C6 cells, 24 h), the “cell morphology versus DMSO-treated control (confocal microscopy)” value is listed as “virtually indistinguishable”. Besides, the “Ranking Cytotoxicity” value in the data set with C6 glioma cells came out at 1.

As for “[Ru(η^6-p-cymene)(4,4′-dimethoxy-2,2′-bipyridine)Cl]PF6 [RuBMeO]”, at Aβ40 [1], the “DLS prominent peak particle size” value stood at 239 nm, the “DLS minor feature share” value is on record as 11%, the “DLS minor feature particle size” value is 32 nm and the “Ranking DLS” value worked out at 2. Besides, at Aβ40 [2], the “Ranking TEM” value is 5. In addition, the “Ranking Cytotoxicity” value in the data set on C6 glioma cells turned out to be 3.

Values taken from article PMC12024814, “Ruthenium(II)–Arene Complexes with a 2,2′-Bipyridine Ligand as Anti-Aβ Agents” (Biomolecules, 2025).
